Laboratory results published in PubChem BioAssay (NCI).
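Dose response: 5 concentrations. Exposure: 48 h. Format: 96-well plates. Endpoint: linear interpolation; highest concentration if not reached. TGI: concentration producing complete growth inhibition.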

What was measured:
Test in all cases: DTP human tumour cell line panel, 48 h
[1] = test system: 786-0 renal
[2] = test system: A498 renal
[3] = test system: ACHN renal
[4] = test system: BT-549 breast
[5] = test system: CAKI-1 renal
[6] = test system: CCRF-CEM leukemia
[7] = test system: COLO 205 colon
[8] = test system: DU-145 prostate
[9] = test system: EKVX NSCLC
[10] = test system: HCC-2998 colon
[11] = test system: HCT-116 colon
[12] = test system: HL-60(TB) leukemia
[13] = test system: HOP-62 NSCLC
[14] = test system: HOP-92 NSCLC
[15] = test system: HS 578T breast
[16] = test system: HT29 colon
[17] = test system: IGROV1 ovarian
[18] = test system: K-562 leukemia
[19] = test system: KM12 colon
[20] = test system: LOX IMVI melanoma
[21] = test system: M14 melanoma
[22] = test system: MALME-3M melanoma
[23] = test system: MCF7 breast
[24] = test system: MDA-MB-231 breast
[25] = test system: MDA-MB-435
[26] = test system: MDA-N
[27] = test system: MOLT-4 leukemia
[28] = test system: NCI-H226 lung
[29] = test system: NCI-H23 lung
[30] = test system: NCI-H460 lung
[31] = test system: NCI-H522 lung
[32] = test system: NCI/ADR-RES ovarian
[33] = test system: OVCAR-3 ovarian
[34] = test system: OVCAR-4 ovarian
[35] = test system: OVCAR-5 ovarian
[36] = test system: OVCAR-8 ovarian
[37] = test system: PC-3 prostate
[38] = test system: RPMI-8226 leukemia
[39] = test system: RXF 393 renal
[40] = test system: SF-268 CNS
[41] = test system: SF-295 CNS
[42] = test system: SF-539 CNS
[43] = test system: SK-MEL-2 melanoma
[44] = test system: SK-MEL-28 melanoma
[45] = test system: SK-MEL-5 melanoma
[46] = test system: SK-OV-3 ovarian
[47] = test system: SN12C renal
[48] = test system: SNB-19 CNS
[49] = test system: SNB-75 CNS
[50] = test system: SW-620 colon
[51] = test system: T-47D breast
[52] = test system: TK-10 renal
[53] = test system: U251 CNS
[54] = test system: UACC-257 melanoma
[55] = test system: UACC-62 melanoma
[56] = test system: UO-31 renal
[57] = test system: A549 NSCLC
[58] = test system: HCT-15 colon
[59] = test system: SR leukemia

Structure (SMILES): O=S1(=O)c2ccccc2-c2nccc3ccnc1c23
- TGI [1]: > 100 µM
- TGI [2]: 84.4 µM
- TGI [3]: 85.3 µM
- TGI [4]: 35.4 µM
- TGI [5]: 85.9 µM
- TGI [6]: > 100 µM
- TGI [7]: 65.8 µM
- TGI [8]: > 100 µM
- TGI [9]: > 100 µM
- TGI [10]: 28.6 µM
- TGI [11]: > 100 µM
- TGI [12]: > 100 µM
- TGI [13]: > 100 µM
- TGI [14]: > 100 µM
- TGI [15]: > 100 µM
- TGI [16]: 23.2 µM
- TGI [17]: > 100 µM
- TGI [18]: > 100 µM
- TGI [19]: > 100 µM
- TGI [20]: > 100 µM
- TGI [21]: > 100 µM
- TGI [22]: > 100 µM
- TGI [23]: > 100 µM
- TGI [24]: 95.7 µM
- TGI [25]: > 100 µM
- TGI [26]: > 100 µM
- TGI [27]: 6.87 µM
- TGI [28]: > 100 µM
- TGI [29]: 44 µM
- TGI [30]: 76.1 µM
- TGI [31]: 29.9 µM
- TGI [32]: > 100 µM
- TGI [33]: > 100 µM
- TGI [34]: > 100 µM
- TGI [35]: > 100 µM
- TGI [36]: > 100 µM
- TGI [37]: > 100 µM
- TGI [38]: 85.6 µM
- TGI [39]: > 100 µM
- TGI [40]: > 100 µM
- TGI [41]: > 100 µM
- TGI [42]: > 100 µM
- TGI [43]: > 100 µM
- TGI [44]: > 100 µM
- TGI [45]: 27.7 µM
- TGI [46]: > 100 µM
- TGI [47]: 94.1 µM
- TGI [48]: 91.3 µM
- TGI [49]: 83.7 µM
- TGI [50]: > 100 µM
- TGI [51]: > 100 µM
- TGI [52]: > 100 µM
- TGI [53]: > 100 µM
- TGI [54]: > 100 µM
- TGI [55]: 31.7 µM
- TGI [56]: 59 µM

Structure (SMILES): CCOC(=O)C(O)Cc1cnc2ccccc2n1 (configuration not stated)
- TGI [1]: > 100 µM
- TGI [2]: > 100 µM
- TGI [57]: > 100 µM
- TGI [3]: > 100 µM
- TGI [4]: > 100 µM
- TGI [5]: > 100 µM
- TGI [6]: > 100 µM
- TGI [7]: > 100 µM
- TGI [8]: > 100 µM
- TGI [9]: > 100 µM
- TGI [10]: > 100 µM
- TGI [11]: > 100 µM
- TGI [58]: > 100 µM
- TGI [13]: > 100 µM
- TGI [14]: > 100 µM
- TGI [15]: > 100 µM
- TGI [16]: > 100 µM
- TGI [17]: > 100 µM
- TGI [18]: > 100 µM
- TGI [19]: > 100 µM
- TGI [20]: > 100 µM
- TGI [21]: > 100 µM
- TGI [22]: > 100 µM
- TGI [23]: > 100 µM
- TGI [24]: > 100 µM
- TGI [25]: > 100 µM
- TGI [26]: > 100 µM
- TGI [27]: > 100 µM
- TGI [29]: > 100 µM
- TGI [30]: > 100 µM
- TGI [31]: > 100 µM
- TGI [32]: > 100 µM
- TGI [33]: > 100 µM
- TGI [34]: > 100 µM
- TGI [35]: > 100 µM
- TGI [36]: > 100 µM
- TGI [37]: > 100 µM
- TGI [38]: > 100 µM
- TGI [39]: > 100 µM
- TGI [40]: > 100 µM
- TGI [42]: > 100 µM
- TGI [43]: > 100 µM
- TGI [44]: > 100 µM
- TGI [45]: > 100 µM
- TGI [46]: > 100 µM
- TGI [47]: > 100 µM
- TGI [48]: > 100 µM
- TGI [49]: > 100 µM
- TGI [59]: > 100 µM
- TGI [50]: > 100 µM
- TGI [51]: > 100 µM
- TGI [52]: > 100 µM
- TGI [53]: > 100 µM
- TGI [54]: > 100 µM
- TGI [55]: > 100 µM
- TGI [56]: > 100 µM
